Earlier results, collected in patent US11707455B2, “Pharmaceutical composition containing dabigatran etexilate and preparation method thereof” (SHANGHAI WD PHARMACEUTICAL CO., LTD, priority 2018, dated 2023).

Legend:
[1] = pH 1
[2] = in vivo

maximum solubility [1]: greater than 80 mg/mL
Cmax variation range [2]: ≤ 5 folds
Structure (SMILES): CCCCCCOC(=O)N=C(N)c1ccc(NCc2nc3cc(C(=O)N(CCC(=O)OCC)c4ccccn4)ccc3n2C)cc1.CS(=O)(=O)O [DEM]
